The text below walks through data of PubChem BioAssay (NCI).

Some test systems named below: A498 renal; A549 NSCLC; ACHN renal; EKVX NSCLC; HCC-2998 colon; HCT-116 colon; HL-60(TB) leukemia; HOP-92 NSCLC; IGROV1 ovarian; M14 melanoma; MCF7 breast; MDA-N; NCI-H226 lung; NCI-H23 lung; OVCAR-3 ovarian; OVCAR-4 ovarian; RPMI-8226 leukemia; SF-268 CNS; SNB-75 CNS; MDA-MB-231 breast.
What all share (test): NCI anticancer screen, dose series, 48 h

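96-well plates; 48 h exposure; 5 concentrations. Endpoints by linear interpolation between flanking doses. Not reached: highest tested concentration assigned. TGI: concentration producing complete growth inhibition.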 Where only a bound is given, the exact number is not on record here.

With `COc1cc(NC(C)=O)ccc1C(=O)N/N=C/c1ccc(Cl)cc1Cl`, the TGI in the test with A498 renal was 61 µM; in the test with A549 NSCLC, greater than 100 µM; in the test on ACHN renal, greater than 100 µM; with EKVX NSCLC it was greater than 100 µM; in the test on HCC-2998 colon, greater than 100 µM; in the test with HCT-116 colon, greater than 100 µM. Also, the TGI with HL-60(TB) leukemia was greater than 100 µM; in the test on HOP-92 NSCLC it was greater than 100 µM; in the test on IGROV1 ovarian, greater than 100 µM; with M14 melanoma, greater than 100 µM; in the test with MCF7 breast, greater than 100 µM; in the test with MDA-N, 72.7 µM. Besides, the TGI is greater than 100 µM in the test on NCI-H226 lung; greater than 100 µM in the test on NCI-H23 lung; greater than 100 µM with OVCAR-3 ovarian; 85.5 µM with OVCAR-4 ovarian; greater than 100 µM in the test on RPMI-8226 leukemia; greater than 100 µM in the test with SF-268 CNS. The compound also had a TGI in the test with SNB-75 CNS of 36.5 µM.

Consider `O=S1CCS(=O)CCS(=O)CC1` (stereo unspecified), for which the TGI in the test on A549 NSCLC, in the test with EKVX NSCLC, in the test on HCC-2998 colon, in the test with HCT-116 colon, with HL-60(TB) leukemia and in the test on HOP-92 NSCLC was greater than 100 µM each time. Besides, the TGI with IGROV1 ovarian, with M14 melanoma, with MCF7 breast, in the test with MDA-MB-231 breast, with MDA-N and with NCI-H23 lung was greater than 100 µM in each case. The TGI in the test with OVCAR-3 ovarian, in the test with OVCAR-4 ovarian, in the test on SF-268 CNS and in the test with SNB-75 CNS was greater than 100 µM in each case.

For `COc1ccc2nc3ccc(OC)cc3c(SCc3ccc([N+](=O)[O-])cc3)c2c1`, the TGI with A498 renal, with A549 NSCLC, with ACHN renal, in the test on EKVX NSCLC, with HCC-2998 colon and in the test on HCT-116 colon was greater than 100 µM throughout. Besides, the TGI with HL-60(TB) leukemia, in the test on HOP-92 NSCLC, in the test on IGROV1 ovarian, with M14 melanoma, in the test with MDA-MB-231 breast and with MDA-N was greater than 100 µM each time. Further, the TGI in the test with NCI-H226 lung is greater than 100 µM; in the test with NCI-H23 lung, greater than 100 µM; in the test on OVCAR-3 ovarian, greater than 100 µM; in the test on OVCAR-4 ovarian it was 69.6 µM; in the test on SF-268 CNS it was greater than 100 µM; in the test on SNB-75 CNS, greater than 100 µM.

On to `O=C1C(N2CCNCC2)=C(Cl)C(=O)c2ncccc21`, for which the TGI with A549 NSCLC is greater than 10 µM; in the test with ACHN renal, greater than 10 µM; with EKVX NSCLC, greater than 10 µM; in the test on HCC-2998 colon it was greater than 10 µM; in the test with HCT-116 colon it was 4.36 µM; in the test with HOP-92 NSCLC it was 7.82 µM. Further, the TGI with IGROV1 ovarian, with M14 melanoma, in the test with MCF7 breast, with MDA-MB-231 breast, in the test on MDA-N and in the test on NCI-H226 lung was greater than 10 µM throughout. In addition, the TGI in the test on NCI-H23 lung, in the test with OVCAR-3 ovarian, in the test with OVCAR-4 ovarian, in the test on RPMI-8226 leukemia, in the test with SF-268 CNS and in the test with SNB-75 CNS was greater than 10 µM each time.

For the compound `CC(=O)Nc1ccc(NC(=O)c2c(Cl)c(Cl)c(Cl)c(Cl)c2-c2nc3ccccc3[nH]2)cc1`, the TGI in the test with A498 renal, in the test on A549 NSCLC, in the test with ACHN renal, in the test on EKVX NSCLC, in the test with HCC-2998 colon and with HCT-116 colon was greater than 100 µM in each case. In addition, the TGI in the test with HL-60(TB) leukemia is 67.6 µM; in the test on HOP-92 NSCLC, 71.7 µM; in the test on IGROV1 ovarian, greater than 100 µM; with M14 melanoma, greater than 100 µM; in the test on MCF7 breast it was greater than 100 µM; in the test on MDA-N, greater than 100 µM. The TGI was greater than 100 µM in the test with NCI-H226 lung; greater than 100 µM in the test on NCI-H23 lung; greater than 100 µM with OVCAR-3 ovarian; greater than 100 µM in the test on OVCAR-4 ovarian; 71 µM in the test with RPMI-8226 leukemia; greater than 100 µM with SF-268 CNS. In addition, the TGI in the test with SNB-75 CNS is greater than 100 µM.

Consider `c1ccc(Cc2nc(Cc3n[nH]c(Cc4ccccc4)n3)n[nH]2)cc1`, for which the TGI in the test with A549 NSCLC, with ACHN renal, in the test on EKVX NSCLC, in the test with HCC-2998 colon, in the test on HCT-116 colon and in the test with HOP-92 NSCLC was greater than 100 µM in each case. For the same compound, the TGI in the test on IGROV1 ovarian, with M14 melanoma, with MCF7 breast, with MDA-MB-231 breast, in the test with MDA-N and in the test with NCI-H23 lung was greater than 100 µM throughout. Further, the TGI in the test with OVCAR-3 ovarian, with OVCAR-4 ovarian, in the test with RPMI-8226 leukemia, in the test with SF-268 CNS and in the test with SNB-75 CNS was greater than 100 µM in each case.

For `COc1cc(C)c(/C=C/C(=O)N2C(=O)OC[C@@H]2c2ccccc2)c(C)c1`, the TGI in the test on A498 renal, in the test with A549 NSCLC, in the test on ACHN renal, with EKVX NSCLC, in the test with HCC-2998 colon and in the test with HCT-116 colon was greater than 100 µM throughout. Moreover, the TGI in the test on HL-60(TB) leukemia, in the test on HOP-92 NSCLC, with IGROV1 ovarian, in the test with M14 melanoma, in the test on MDA-MB-231 breast and with MDA-N was greater than 100 µM throughout. For the same compound, the TGI in the test with NCI-H226 lung, in the test on NCI-H23 lung, in the test with OVCAR-3 ovarian, in the test with OVCAR-4 ovarian, with RPMI-8226 leukemia and in the test on SF-268 CNS was greater than 100 µM throughout. Besides, the TGI in the test on SNB-75 CNS was greater than 100 µM.

For `CC(C)(C)c1cc(-c2cc(C(C)(C)C)n(-c3ccccc3)n2)nn1-c1ccccc1`, the TGI in the test with A498 renal, with A549 NSCLC, in the test with ACHN renal, in the test on EKVX NSCLC, in the test on HCC-2998 colon and in the test with HCT-116 colon was greater than 100 µM in each case. For the same compound, the TGI in the test on HL-60(TB) leukemia, with HOP-92 NSCLC, with IGROV1 ovarian, in the test with M14 melanoma, in the test with MCF7 breast and with MDA-MB-231 breast was greater than 100 µM each time. In addition, the TGI in the test with NCI-H226 lung, in the test with NCI-H23 lung, in the test on OVCAR-3 ovarian, in the test with OVCAR-4 ovarian, with RPMI-8226 leukemia and with SF-268 CNS was greater than 100 µM throughout. Further, the TGI in the test on SNB-75 CNS is greater than 100 µM.

As for `CC(=O)N1OC(C)CC1Nc1ccc(Br)cc1` (stereo unspecified), the TGI in the test with A498 renal is greater than 100 µM; with A549 NSCLC it was greater than 100 µM; in the test with ACHN renal it was greater than 100 µM; with EKVX NSCLC, greater than 100 µM; in the test with HCC-2998 colon, 22.4 µM; in the test on HCT-116 colon it was greater than 100 µM. For the same compound, the TGI with HL-60(TB) leukemia, in the test with HOP-92 NSCLC, with IGROV1 ovarian, with M14 melanoma, in the test on MCF7 breast and with MDA-N was greater than 100 µM each time. Further, the TGI in the test on NCI-H226 lung, with NCI-H23 lung, in the test on OVCAR-3 ovarian and in the test with SF-268 CNS was greater than 100 µM each time.

As for `CC(=O)O[C@H]1C(=O)[C@@]2(C)[C@H]([C@H](OC(=O)c3cccc(C(F)(F)F)c3)[C@]3(O)C[C@H](OC(=O)[C@H](O)[C@@H](NC(=O)c4ccccc4)c4ccccc4)C(C)=C1C3(C)C)[C@]1(OC(C)=O)CO[C@@H]1C[C@@H]2O`, the TGI with A498 renal is greater than 13.6 µM; in the test on A549 NSCLC it was greater than 25 µM; in the test with ACHN renal, greater than 9.46 µM; in the test with EKVX NSCLC, greater than 25 µM; in the test on HCT-116 colon it was 3.21 µM; in the test on HL-60(TB) leukemia, less than 0.0025 µM. The TGI was 15.1 µM with HOP-92 NSCLC; greater than 23 µM in the test with IGROV1 ovarian; 11.9 µM with M14 melanoma; greater than 13.1 µM in the test with MDA-MB-231 breast; less than 0.0025 µM in the test on MDA-N; 11.6 µM in the test with NCI-H226 lung. Moreover, the TGI is greater than 25 µM with NCI-H23 lung; 8.03 µM with OVCAR-3 ovarian; greater than 18.4 µM in the test with OVCAR-4 ovarian; 0.0862 µM with RPMI-8226 leukemia; greater than 25 µM with SF-268 CNS.

Consider `Oc1cc(Br)cc2cccnc12`, for which the TGI is 24.3 µM in the test on A498 renal; greater than 87.2 µM in the test with A549 NSCLC; greater than 69 µM with ACHN renal; 16.2 µM with EKVX NSCLC; 98.2 µM in the test with HCC-2998 colon; 16.8 µM in the test on HCT-116 colon. Moreover, the TGI was 0.82 µM with HL-60(TB) leukemia; 38 µM with HOP-92 NSCLC; 8.22 µM with IGROV1 ovarian; greater than 37.7 µM in the test on M14 melanoma; 19.1 µM in the test on MDA-MB-231 breast; 97 µM in the test on MDA-N. The TGI with NCI-H226 lung is 58 µM; in the test with NCI-H23 lung, 31.2 µM; in the test on OVCAR-3 ovarian, 13.7 µM; with OVCAR-4 ovarian it was greater than 65.3 µM; in the test on RPMI-8226 leukemia, 5.68 µM; in the test with SF-268 CNS, greater than 42.2 µM. This compound returned a TGI with SNB-75 CNS greater than 91.5 µM.

For `CCCCCCCCCc1cc(-c2ccc(C=O)s2)sc1-c1ccc(C=O)s1`, the TGI in the test on A498 renal is 3.12 µM; with A549 NSCLC it was greater than 100 µM; in the test with ACHN renal, greater than 100 µM; with EKVX NSCLC it was greater than 100 µM; in the test on HCC-2998 colon, greater than 78.7 µM; in the test on HCT-116 colon it was 49 µM. Moreover, the TGI with HL-60(TB) leukemia is 51.1 µM; in the test on HOP-92 NSCLC, 75.8 µM; in the test with IGROV1 ovarian, 56.3 µM; in the test with M14 melanoma, 25 µM; with MCF7 breast it was greater than 54.3 µM; with MDA-MB-231 breast, greater than 77.9 µM. For the same compound, the TGI with NCI-H226 lung is 9.94 µM; in the test with NCI-H23 lung it was 82.5 µM; in the test on OVCAR-3 ovarian it was 38.2 µM; in the test on OVCAR-4 ovarian, greater than 80.4 µM; in the test with RPMI-8226 leukemia, 51.2 µM; with SF-268 CNS, greater than 100 µM. In the test with SNB-75 CNS, the TGI was greater than 91.1 µM.
